Measurements published in patent US9617262B2, “Antibacterial cyclopental[C]pyrrole substituted 3,4-dihydro-1H-[1,8]naphthyridinones” (Janssen Sciences Ireland UC, priority 2011, dated 2017).

Legend:
[1] = test system: Methicillin-sensitive Staphylococcus aureus strain ATCC 29213; assay: In vivo efficacy, peritonitis model of S. aureus infection; settings: IV, 20% CD + 2H2T, IP infection, inoculum 8.7 log10, female Swiss albino mice, 3 days post-infection
Description: The concept of studying the in vivo effect of an antibacterial compound by treating intraperitoneally infected mice was introduced in 1911 for optochin against pneumococci (Morgenroth and Levy, 1911). The popularity of the model comes from the ease of its use with short-duration experiments, reproducible infections and simple end-points.
Methicillin-sensitive Staphylococcus aureus strain ATCC 29213 was used to infect female Swiss albino mice. A Brain Heart Infusion (BHI) broth bacterial culture was inoculated the day before infection, incubated at 37° C. overnight and diluted in fresh BHI broth to the desired concentration. I.p. injection of ˜5×10^8-5×10^9 colony forming units (CFU) was performed in either of the lateral lower quadrants of the abdomen. After inoculation, mice were kept in their cages under daily observation for development of signs of infection or death. For the treatment of mice, both the p.o. and i.v. routes were used and each mouse was treated individually by gavage or by i.v. injection. Both solutions (p.o. and i.v.) and suspensions (p.o.) were tested in this model. The parameter used for monitoring the course of infection and the effect of treatment was death or survival of the animals over 3 days post-infection. […]

[2] = target: S. aureus ATCC 29213 FabI (Staphylococcus aureus (strain MRSA252), UniProt Q6GI75); assay: Staphylococcus aureus FabI enzyme inhibition assay; type: biochemical; settings: pH 6.5, 30 minutes at room temperature
Method: FabI enzyme inhibition assays were carried out in half-area, 384-well microtitre plates. Compounds were evaluated in 40-μl assay mixtures containing 100 mM NaADA, pH 6.5 (ADA=N-[2-acetamido]-2iminodiacetic acid), 250 μM crotonoyl-CoA, 625 μM NADH and 50 μg/ml S. aureus ATCC 29213 FabI. Inhibitors were typically varied over the range of 50 to 0.39 μM. The reaction mixtures were incubated for 30 minutes at room temperature and the reaction was stopped by adding 200 mM Tris buffer (pH 9.0) to create a pH-shift. The consumption of NADH was monitored by measuring the change in absorbance at […]. By comparing sample readings to those of negative (absence of compound) and positive (absence of enzyme) controls, the percent inhibition of enzymatic activity of the compounds was determined. A best-fit curve is fitted by a minimum of squares method. From this an IC50-value (expressed in μg/ml), resulting in 50% inhibition of enzymatic activity, was obtained.

[3] = test system: S. aureus; assay: Antibacterial susceptibility testing: IC90 determination with 10% human serum (STA + 10% HS); type: cell-based, Staphylococcus aureus; settings: human serum at a final concentration of 10%
Method: The following bacteria were used: Staphylococcus aureus ATCC 29213, methicillin-resistant Staphylococcus aureus (MRSA) ATCC 700788 and Escherichia coli ATCC 35218. The bacteria used in this study were grown overnight in flasks containing 100 ml Mueller-Hinton broth (Difco cat. nr. 0757-17) in sterile de-ionized water, with shaking, at 37° C. Stocks were store at −70° C. until use.
Bacteria were incubated on a tryptic soy agar plate containing 5% sheep blood (Becton Dickinson cat. nr. 254053) for 18-24 hours at 35° C. in aerobic conditions (first passage). For the second passage, fresh Mueller-Hinton broth is inoculated with 5-10 colonies and grown overnight at 35° C. until turbidity (reaching log-phase) in aerobic conditions is reached. The bacterial suspension is then adjusted to 0.5 McFarland density and further diluted 1:100 in Mueller Hinton broth medium. This is used as inoculum.
MIC assays were performed by the broth microdilution method in a 96-well format (flat-bottom microtitre plates) with a final volume of 0.1 ml Mueller Hinton broth containing two-fold serial dilutions of compounds and inoculated with 5×10^5 CFU/ml of bacteria (standard inoculum size according to CLSI guidelines). Inhibitors are typically varied over the range of 63 to 0.49 μM. The final DMSO concentration in the assay was 1.25% (maximum tolerable DMSO concentration=6%). In the assays where the effect of human serum on the activity of the compounds against S. aureus was tested, human serum was added at a final concentration of 10%. The plates were incubated at 35° C. for 16-20 hours. At the end of incubation the bacterial growth was quantified fluorometrically. For this, resazurin was added to all wells and the plates were re-incubated. The incubation time is dependent on the type of bacteria. A change in color from blue to pink indicated the growth of bacteria. The fluorescence was read in computer-controlled fluorometer (Fluoroskan Ascent FL, Labsystems) at an excitation wavelength 540 nm and an emission wavelength of 590 nm. The % growth inhibition achieved by the compounds was calculated according to standard methods. The IC90 (expressed in μg/ml) was defined as the 90% inhibitory concentration for bacterial growth. A panel of reference compounds were simultaneously tested for QC approval.
The results are depicted in the table D2 below (STA+10% HS).

O=C1CCc2cc(/C=C/C(=O)N3C[C@@H]4CC(c5ccccc5)=C[C@@H]4C3)cnc2N1 (single isomer, unassigned) [compound 14]
% Survival ([1]; QD 2.5 mpk): 75%
% Survival ([1]; QD 5 mpk): 100%
FabI IC50 [2]: 0.40 µg/mL
STA + 10% HS (361.169) IC90 [3]: 0.19 µg/mL
